Reference: the kinase profiling compilation of Christmann-Franck et al. (2016)

What was measured:
Assay in all cases: KINOMEscan competition binding
Conditions in all cases: compound 10.0 µM
[1] = target: ERBB4 (human) (UniProt Q15303)
[2] = target: STK11 (human) (UniProt Q15831)
[3] = target: MAP3K7 (human) (UniProt O43318)
[4] = target: PDGFRA (human) (UniProt P16234)
[5] = target: FER (human) (UniProt P16591)
[6] = target: CIT (human) (UniProt O14578)
[7] = target: MAPK7 (human) (UniProt Q13164)
[8] = target: MAPK14 (human) (UniProt Q16539)
[9] = target: HCK (human) (UniProt P08631)
[10] = target: NEK1 (human) (UniProt Q96PY6)
[11] = target: MINK1 (human) (UniProt Q8N4C8)
MINK1 (human), sequence (Q8N4C8 whole entry, looked up): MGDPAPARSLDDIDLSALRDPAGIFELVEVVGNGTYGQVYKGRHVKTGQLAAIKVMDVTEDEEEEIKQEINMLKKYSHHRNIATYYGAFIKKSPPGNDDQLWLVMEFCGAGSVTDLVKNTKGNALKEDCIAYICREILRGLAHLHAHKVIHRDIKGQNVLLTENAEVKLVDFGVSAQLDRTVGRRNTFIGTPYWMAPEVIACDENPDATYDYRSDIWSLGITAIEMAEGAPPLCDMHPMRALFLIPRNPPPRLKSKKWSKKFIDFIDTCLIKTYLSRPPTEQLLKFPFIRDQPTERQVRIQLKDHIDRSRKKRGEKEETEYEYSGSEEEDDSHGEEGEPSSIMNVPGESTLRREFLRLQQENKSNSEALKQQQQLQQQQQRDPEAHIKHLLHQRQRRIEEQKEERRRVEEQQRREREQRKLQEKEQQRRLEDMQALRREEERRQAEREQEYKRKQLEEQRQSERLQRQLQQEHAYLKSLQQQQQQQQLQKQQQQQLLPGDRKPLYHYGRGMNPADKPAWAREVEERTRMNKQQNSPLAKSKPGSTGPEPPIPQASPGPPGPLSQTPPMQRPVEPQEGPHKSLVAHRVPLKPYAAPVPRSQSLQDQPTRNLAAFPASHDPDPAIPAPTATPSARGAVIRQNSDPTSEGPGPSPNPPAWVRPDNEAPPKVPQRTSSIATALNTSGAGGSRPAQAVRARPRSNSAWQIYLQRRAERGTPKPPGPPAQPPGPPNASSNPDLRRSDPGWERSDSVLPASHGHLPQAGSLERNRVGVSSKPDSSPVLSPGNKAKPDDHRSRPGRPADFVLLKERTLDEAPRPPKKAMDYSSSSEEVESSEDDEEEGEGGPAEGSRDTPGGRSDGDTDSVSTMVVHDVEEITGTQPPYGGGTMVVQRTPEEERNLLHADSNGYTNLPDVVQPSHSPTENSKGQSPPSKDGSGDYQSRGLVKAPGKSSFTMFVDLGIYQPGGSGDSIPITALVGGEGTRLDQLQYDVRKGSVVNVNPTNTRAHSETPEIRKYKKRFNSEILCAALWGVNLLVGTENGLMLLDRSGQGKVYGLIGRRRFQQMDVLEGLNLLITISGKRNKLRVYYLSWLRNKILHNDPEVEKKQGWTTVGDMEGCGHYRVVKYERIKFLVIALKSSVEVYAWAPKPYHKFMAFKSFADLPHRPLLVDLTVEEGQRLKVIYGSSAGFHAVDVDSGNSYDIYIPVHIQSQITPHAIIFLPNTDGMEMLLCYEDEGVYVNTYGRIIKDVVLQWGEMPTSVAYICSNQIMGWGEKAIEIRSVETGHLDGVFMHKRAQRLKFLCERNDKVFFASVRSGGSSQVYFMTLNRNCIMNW

[12] = target: PAK2 (human) (UniProt Q13177)
PAK2 (human), sequence (Q13177 whole entry, looked up): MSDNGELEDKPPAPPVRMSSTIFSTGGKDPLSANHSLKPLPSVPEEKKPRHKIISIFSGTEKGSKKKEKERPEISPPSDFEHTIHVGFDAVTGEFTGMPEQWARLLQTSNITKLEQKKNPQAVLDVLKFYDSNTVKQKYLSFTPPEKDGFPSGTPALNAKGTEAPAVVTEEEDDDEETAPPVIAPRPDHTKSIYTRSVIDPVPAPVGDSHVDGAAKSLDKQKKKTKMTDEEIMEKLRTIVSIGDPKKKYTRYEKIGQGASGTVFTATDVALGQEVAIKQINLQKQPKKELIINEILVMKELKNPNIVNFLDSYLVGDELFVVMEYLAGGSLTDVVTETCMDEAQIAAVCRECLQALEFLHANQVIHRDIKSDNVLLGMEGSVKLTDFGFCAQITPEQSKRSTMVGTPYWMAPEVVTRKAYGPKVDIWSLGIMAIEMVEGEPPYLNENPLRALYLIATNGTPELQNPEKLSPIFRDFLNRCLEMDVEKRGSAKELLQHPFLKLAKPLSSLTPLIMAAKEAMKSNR

[13] = target: CSNK1D (human) (UniProt P48730)
[14] = target: PTK6 (human) (UniProt Q13882)
[15] = target: FGFR1 (human) (UniProt P11362)
[16] = target: CAMK2D (human) (UniProt Q13557)
[17] = target: ALK (human) (UniProt Q9UM73)
[18] = target: TSSK1B (human) (UniProt Q9BXA7)
TSSK1B (human), sequence (Q9BXA7 whole entry, looked up): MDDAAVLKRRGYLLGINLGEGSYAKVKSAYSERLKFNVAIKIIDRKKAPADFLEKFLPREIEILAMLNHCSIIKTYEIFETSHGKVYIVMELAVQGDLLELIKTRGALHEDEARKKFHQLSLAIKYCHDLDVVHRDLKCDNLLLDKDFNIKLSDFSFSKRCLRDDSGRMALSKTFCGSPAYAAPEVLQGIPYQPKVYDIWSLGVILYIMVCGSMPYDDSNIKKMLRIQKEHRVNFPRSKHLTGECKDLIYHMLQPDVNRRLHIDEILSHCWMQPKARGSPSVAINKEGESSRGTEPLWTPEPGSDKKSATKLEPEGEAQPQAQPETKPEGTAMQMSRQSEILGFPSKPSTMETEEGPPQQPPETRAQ

[19] = target: IRAK3 (human) (UniProt Q9Y616)
[20] = target: CDK16 (human) (UniProt Q00536)
[21] = target: RAF1 (human) (UniProt P04049)
[22] = tested on: FLT3 (human), P36888 [ITD]
[23] = target: MYLK (human) (UniProt Q15746)
[24] = target: CLK2 (human) (UniProt P49760)
[25] = target: PLK4 (human) (UniProt O00444)
[26] = target: PRKACB (human) (UniProt P22694)
[27] = target: MERTK (human) (UniProt Q12866)
[28] = target: CAMK4 (human) (UniProt Q16566)
CAMK4 (human), sequence (Q16566 whole entry, looked up): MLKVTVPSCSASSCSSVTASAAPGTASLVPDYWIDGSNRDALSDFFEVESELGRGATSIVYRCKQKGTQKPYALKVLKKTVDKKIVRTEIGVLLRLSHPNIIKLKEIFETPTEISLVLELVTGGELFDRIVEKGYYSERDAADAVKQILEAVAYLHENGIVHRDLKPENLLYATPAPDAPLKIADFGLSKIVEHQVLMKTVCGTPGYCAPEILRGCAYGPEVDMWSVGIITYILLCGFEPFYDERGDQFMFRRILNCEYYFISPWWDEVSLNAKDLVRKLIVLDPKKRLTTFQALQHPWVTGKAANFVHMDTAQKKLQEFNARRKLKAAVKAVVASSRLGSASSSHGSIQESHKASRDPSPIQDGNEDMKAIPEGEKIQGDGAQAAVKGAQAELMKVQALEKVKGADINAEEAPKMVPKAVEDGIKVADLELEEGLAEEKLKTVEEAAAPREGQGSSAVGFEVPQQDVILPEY

[29] = target: TLK2 (human) (UniProt Q86UE8)
[30] = target: CHEK1 (human) (UniProt O14757)
CHEK1 (human), sequence (O14757 whole entry, looked up): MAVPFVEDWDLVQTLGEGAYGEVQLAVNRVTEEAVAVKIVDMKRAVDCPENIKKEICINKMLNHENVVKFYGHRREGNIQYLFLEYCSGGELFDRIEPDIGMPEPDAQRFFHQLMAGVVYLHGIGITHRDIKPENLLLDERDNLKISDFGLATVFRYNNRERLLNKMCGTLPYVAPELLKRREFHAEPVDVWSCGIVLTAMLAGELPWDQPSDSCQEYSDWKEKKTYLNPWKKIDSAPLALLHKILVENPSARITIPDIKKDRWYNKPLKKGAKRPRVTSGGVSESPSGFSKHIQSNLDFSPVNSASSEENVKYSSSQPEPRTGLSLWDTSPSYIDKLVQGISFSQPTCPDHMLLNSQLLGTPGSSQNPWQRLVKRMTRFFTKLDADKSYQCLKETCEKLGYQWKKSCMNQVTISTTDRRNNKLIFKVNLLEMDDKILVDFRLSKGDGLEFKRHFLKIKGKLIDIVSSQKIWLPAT

[31] = target: MARK4 (human) (UniProt Q96L34)
[32] = target: LIMK2 (human) (UniProt P53671)
[33] = target: INSR (human) (UniProt P06213)
[34] = target: HIPK1 (human) (UniProt Q86Z02)
[35] = target: MAP3K9 (human) (UniProt P80192)
MAP3K9 (human), sequence (P80192 whole entry, looked up): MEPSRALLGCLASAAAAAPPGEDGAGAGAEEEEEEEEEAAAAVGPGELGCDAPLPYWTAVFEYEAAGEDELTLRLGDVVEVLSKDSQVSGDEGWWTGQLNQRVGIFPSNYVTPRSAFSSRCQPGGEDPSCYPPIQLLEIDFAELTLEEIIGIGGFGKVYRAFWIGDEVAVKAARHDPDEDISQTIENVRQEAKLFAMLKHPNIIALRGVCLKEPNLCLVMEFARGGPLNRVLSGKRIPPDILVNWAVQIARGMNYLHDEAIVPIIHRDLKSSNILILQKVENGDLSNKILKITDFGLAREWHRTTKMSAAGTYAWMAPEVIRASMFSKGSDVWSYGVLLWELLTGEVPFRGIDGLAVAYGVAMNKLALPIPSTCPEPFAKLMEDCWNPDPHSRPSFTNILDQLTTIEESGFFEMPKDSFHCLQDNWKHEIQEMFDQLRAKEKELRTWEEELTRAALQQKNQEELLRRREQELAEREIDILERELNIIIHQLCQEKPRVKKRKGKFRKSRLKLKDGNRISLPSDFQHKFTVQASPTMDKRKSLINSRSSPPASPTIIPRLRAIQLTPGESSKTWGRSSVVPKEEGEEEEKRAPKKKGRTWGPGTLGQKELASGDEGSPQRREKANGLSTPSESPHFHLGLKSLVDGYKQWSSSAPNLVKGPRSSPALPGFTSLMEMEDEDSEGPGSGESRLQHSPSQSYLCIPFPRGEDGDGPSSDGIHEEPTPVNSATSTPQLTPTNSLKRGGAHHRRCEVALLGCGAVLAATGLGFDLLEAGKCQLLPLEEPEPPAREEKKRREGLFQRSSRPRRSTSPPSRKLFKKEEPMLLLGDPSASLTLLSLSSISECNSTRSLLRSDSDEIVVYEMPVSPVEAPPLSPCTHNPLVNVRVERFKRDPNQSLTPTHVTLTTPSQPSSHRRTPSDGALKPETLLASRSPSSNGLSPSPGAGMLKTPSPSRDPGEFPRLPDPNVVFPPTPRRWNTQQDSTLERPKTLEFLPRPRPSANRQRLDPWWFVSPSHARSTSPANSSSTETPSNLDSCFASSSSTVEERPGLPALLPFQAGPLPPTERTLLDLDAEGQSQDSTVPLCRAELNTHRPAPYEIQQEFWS

[36] = target: EPHA4 (human) (UniProt P54764)
[37] = target: NEK6 (human) (UniProt Q9HC98)
[38] = target: ADCK4 (human) (UniProt Q96D53)
[39] = target: CAMKK2 (human) (UniProt Q96RR4)
[40] = target: CSF1R (human) (UniProt P07333)
[41] = target: LCK (human) (UniProt P06239)

MAP3K7 (human), sequence (O43318 whole entry, looked up): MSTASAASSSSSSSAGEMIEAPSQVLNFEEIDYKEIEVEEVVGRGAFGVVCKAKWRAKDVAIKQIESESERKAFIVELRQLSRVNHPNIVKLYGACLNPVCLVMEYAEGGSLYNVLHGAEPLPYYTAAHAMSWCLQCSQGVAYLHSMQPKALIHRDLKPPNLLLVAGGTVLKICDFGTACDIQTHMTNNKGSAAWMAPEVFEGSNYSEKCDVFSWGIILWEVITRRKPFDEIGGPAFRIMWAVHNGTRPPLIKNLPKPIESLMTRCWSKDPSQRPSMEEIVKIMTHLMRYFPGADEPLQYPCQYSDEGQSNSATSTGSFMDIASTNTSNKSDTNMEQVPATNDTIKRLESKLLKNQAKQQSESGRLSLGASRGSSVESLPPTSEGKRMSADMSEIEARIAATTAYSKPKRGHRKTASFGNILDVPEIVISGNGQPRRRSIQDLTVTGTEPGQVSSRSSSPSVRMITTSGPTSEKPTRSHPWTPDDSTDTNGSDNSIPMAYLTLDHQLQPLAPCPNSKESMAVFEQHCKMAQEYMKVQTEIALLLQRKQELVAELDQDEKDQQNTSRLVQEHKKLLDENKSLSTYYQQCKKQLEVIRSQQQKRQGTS

In the case of `COc1cc(C(=O)NC2CCN(C)CC2)ccc1Nc1ncc2c(n1)N(C1CCCC1)C(C)CC(=O)N2C` (stereo not drawn), the kinase still bound, per cent of control [1] is reported as 100%, the kinase still bound, per cent of control [2] is reported as 100% and the kinase still bound, per cent of control [3] is reported as 100%. For the same compound, the kinase still bound, per cent of control [4] was 100%, the kinase still bound, per cent of control [5] was 31% and the kinase still bound, per cent of control [6] was 100%. The kinase still bound, per cent of control [7] was 100%, the kinase still bound, per cent of control [8] was 100% and the kinase still bound, per cent of control [9] was 100%. It also gave a kinase still bound, per cent of control [10] of 100%, a kinase still bound, per cent of control [11] of 100% and a kinase still bound, per cent of control [12] of 100%. The kinase still bound, per cent of control [13] was 100%, the kinase still bound, per cent of control [14] was 100% and the kinase still bound, per cent of control [15] was 100%. The kinase still bound, per cent of control [16] was 100%, the kinase still bound, per cent of control [17] was 6.2% and the kinase still bound, per cent of control [18] was 100%. The kinase still bound, per cent of control [19] was 100%, the kinase still bound, per cent of control [20] was 100% and the kinase still bound, per cent of control [21] was 100%. For the same compound, the kinase still bound, per cent of control [22] was 100%, the kinase still bound, per cent of control [23] was 2.8% and the kinase still bound, per cent of control [24] was 6.2%. The kinase still bound, per cent of control [25] was 100%, the kinase still bound, per cent of control [26] was 100% and the kinase still bound, per cent of control [27] was 100%. The kinase still bound, per cent of control [28] was 100%, the kinase still bound, per cent of control [29] was 100% and the kinase still bound, per cent of control [30] was 100%. For the same compound, the kinase still bound, per cent of control [31] was 100%, the kinase still bound, per cent of control [32] was 100% and the kinase still bound, per cent of control [33] was 100%. It also gave a kinase still bound, per cent of control [34] of 100%, a kinase still bound, per cent of control [35] of 100% and a kinase still bound, per cent of control [36] of 100%. For the same compound, the kinase still bound, per cent of control [37] was 100%, the kinase still bound, per cent of control [38] was 100% and the kinase still bound, per cent of control [39] was 24%. For the same compound, the kinase still bound, per cent of control [40] was 100% and the kinase still bound, per cent of control [41] was 100%.

`C[C@@H](Oc1cc(-n2cnc3ccc(CN4CCN(C)CC4)cc32)sc1C(N)=O)c1ccccc1C(F)(F)F` showed a kinase still bound, per cent of control [1] of 88%, a kinase still bound, per cent of control [2] of 90% and a kinase still bound, per cent of control [3] of 48%. The kinase still bound, per cent of control [4] was 100%, the kinase still bound, per cent of control [5] was 100% and the kinase still bound, per cent of control [6] was 87%. The kinase still bound, per cent of control [7] was 91%, the kinase still bound, per cent of control [8] was 100% and the kinase still bound, per cent of control [9] was 100%. It also gave a kinase still bound, per cent of control [10] of 41%, a kinase still bound, per cent of control [11] of 29% and a kinase still bound, per cent of control [12] of 38%. For the same compound, the kinase still bound, per cent of control [13] was 100%, the kinase still bound, per cent of control [14] was 93% and the kinase still bound, per cent of control [15] was 37%. The kinase still bound, per cent of control [16] was 7.3%, the kinase still bound, per cent of control [17] was 100% and the kinase still bound, per cent of control [18] was 19%. The kinase still bound, per cent of control [19] was 38%, the kinase still bound, per cent of control [20] was 100% and the kinase still bound, per cent of control [21] was 100%. It also gave a kinase still bound, per cent of control [22] of 31%, a kinase still bound, per cent of control [23] of 62% and a kinase still bound, per cent of control [24] of 69%. The kinase still bound, per cent of control [25] was 97%, the kinase still bound, per cent of control [26] was 89% and the kinase still bound, per cent of control [27] was 24%. For the same compound, the kinase still bound, per cent of control [28] was 100%, the kinase still bound, per cent of control [29] was 94% and the kinase still bound, per cent of control [30] was 100%. For the same compound, the kinase still bound, per cent of control [31] was 100%, the kinase still bound, per cent of control [32] was 100% and the kinase still bound, per cent of control [33] was 100%. For the same compound, the kinase still bound, per cent of control [34] was 40%, the kinase still bound, per cent of control [35] was 17% and the kinase still bound, per cent of control [36] was 100%. It also gave a kinase still bound, per cent of control [37] of 95%, a kinase still bound, per cent of control [38] of 58% and a kinase still bound, per cent of control [39] of 66%. The kinase still bound, per cent of control [40] was 77% and the kinase still bound, per cent of control [41] was 70%.

For `Cc1ccc(NC(=O)c2cccc(C(C)(C)C#N)c2)cc1Nc1ccc2ncn(C)c(=O)c2c1`, the kinase still bound, per cent of control [1] was 34%, the kinase still bound, per cent of control [2] was 100% and the kinase still bound, per cent of control [3] was 17%. The kinase still bound, per cent of control [4] was 0.1%, the kinase still bound, per cent of control [5] was 100% and the kinase still bound, per cent of control [6] was 0.05%. It also gave a kinase still bound, per cent of control [7] of 100%, a kinase still bound, per cent of control [8] of 0% and a kinase still bound, per cent of control [9] of 3.1%. For the same compound, the kinase still bound, per cent of control [10] was 100%, the kinase still bound, per cent of control [11] was 7.2% and the kinase still bound, per cent of control [12] was 100%. For the same compound, the kinase still bound, per cent of control [13] was 100%, the kinase still bound, per cent of control [14] was 94% and the kinase still bound, per cent of control [15] was 59%. For the same compound, the kinase still bound, per cent of control [16] was 100%, the kinase still bound, per cent of control [17] was 93% and the kinase still bound, per cent of control [18] was 79%. For the same compound, the kinase still bound, per cent of control [19] was 95%, the kinase still bound, per cent of control [20] was 100% and the kinase still bound, per cent of control [21] was 2.3%. The kinase still bound, per cent of control [22] was 78%, the kinase still bound, per cent of control [23] was 98% and the kinase still bound, per cent of control [24] was 100%. The kinase still bound, per cent of control [25] was 87%, the kinase still bound, per cent of control [26] was 100% and the kinase still bound, per cent of control [27] was 100%. The kinase still bound, per cent of control [28] was 100%, the kinase still bound, per cent of control [29] was 100% and the kinase still bound, per cent of control [30] was 84%. It also gave a kinase still bound, per cent of control [31] of 100%, a kinase still bound, per cent of control [32] of 95% and a kinase still bound, per cent of control [33] of 100%. The kinase still bound, per cent of control [34] was 100%, the kinase still bound, per cent of control [35] was 94% and the kinase still bound, per cent of control [36] was 0%. It also gave a kinase still bound, per cent of control [37] of 100%, a kinase still bound, per cent of control [38] of 100% and a kinase still bound, per cent of control [39] of 28%. For the same compound, the kinase still bound, per cent of control [40] was 0.1% and the kinase still bound, per cent of control [41] was 0.7%.
